Test results taken from patent US11654136B2, “Phosphoinositide 3-kinase inhibitor with a zinc binding moiety” (Curis, Inc., priority 2011, dated 2023).

Key:
MM1S subcutaneous tumor = assay: MM1S xenograft model; assay type: in vivo, SCID/Beige mice; settings: oral gavage five times per week
Description: Female SCID/Beige mice at age 4 weeks were housed in ventilated micro-isolator cages (INNOCAGE®IVC, Innovive Inc., San Diego, Calif.) in a controlled climate, fed with sterile high-fat diet (Problab-RMH 2000) ad libitum and provided with sterilized water. All housing and supplies for SCID/Beige mice were sterilized by autoclaving before use. Mice were inspected daily including weekends/holidays by trained animal facility personnel and investigators. All animal procedures were performed under sterile conditions within a biosafety cabinet (for injections) or laminar flow hood (for animal husbandry and non-invasive procedures).
MM1S human […] cells (Gold-Leikin R E, et al., J Lab Clin Invest. 1980; 113:335-345) were originally obtained from peripheral blood of a multiple myeloma patient. Cryopreserved cells were thawed in a 37° C. water bath and cultured in RPMI medium plus 10% Fetal Bovine Serum (FBS) in a tissue culture incubator at 5% CO2. Cells were sent to outside vendors for contaminants and rodent pathogen screening intended to rule out contamination by mycoplasma (by PCR) and/or virus (by MAP test, Mouse Antibody Production). […] The implanted mice were monitored for general health and tumor development daily.
(§1) Tumors were detectable about two weeks following implantation. Tumor size was measured with a caliper. […]
During each animal study, tumors were measured with calipers, tumor size determined using the above mentioned formula, and tumor size changes in percentage calculated. Mouse body weights were measured with a scale twice per week. […] In addition to the determination of tumor size changes, the last tumor measurement was used to generate the tumor weight change ratio (T/C value), a standard metric developed by the National Cancer Institute (NCI) for xenograft tumor evaluation T/C values were calculated using the following formula: % T/C=100×ΔT/ΔC if ΔT>0. […]
The treatment period was 15 days. Tumor sizes and body weights were measured again on the last day of the study.

T and B lymphocytes = assay: Effect on circulating and lymphoid organ lymphocytes; assay type: in vivo, CD1 wild type mice; settings: 100 mg/kg orally for five consecutive days
Description: Another 5 mice were treated with vehicle. Blood was collected at various time points (including pre-dosing, during dosing and post-dosing) from the mandibular vein. Blood was analyzed with a flow cytometer for T and B cell quantification.
The animals were sacrificed, and the lymphoid organs were collected. Cells were physically dissociated from the tissues and analyzed with a flow cytometer. Anti-CD3 and -CD19 antibodies were used to stain T and B cells, respectively.

[1] = system: marrow lymphocyte progenitor cells; assay: Effect on hematopoietic cells in bone marrow; assay type: in vivo, mice; settings: 100 mg/kg orally for five consecutive days
Description: Bone marrow was also removed from the mice sacrificed in Example 12. Bone marrow content were collected from the mice long bones and analyzed with flow cytometer. Various markers for progenitor or mature lymphocytes were used.

[2] = system: Daudi human Burkitt's lymphoma xenograft; assay: Comparison with CAL-101 in the Daudi xenograft tumor model; assay type: in vivo, SCID beige mice; settings: 100 mg/kg Qd (Mon-Fri), PO; 18 days
Description: Female SCID beige mice (CD-1 Beige SCID) at 6-8 weeks of age were housed in ventilated micro-isolator cages in a controlled climate, fed with sterile high-fat diet (Problab-RMH 2000 ad libitum and provided with sterilized water. All housing and supplies for SCID beige mice are disposable, and purchased irradiated from Innovive prior to use. Mice were inspected daily including weekends/holidays by trained animal facility personnel and investigators. All animal procedures were performed under sterile conditions in a biosafety cabinet (for injections) or laminar flow hood (for animal husbandry and non-invasive procedures).
Daudi human Burkitt's lymphoma cells were originally obtained from a human Burkitt's lymphoma patient. […] The implanted mice were monitored for general health and tumor development daily.
as §1
During each animal study, tumors were measured with calipers, tumor size determined using the above mentioned formula, and tumor size changes in percentage calculated. Mouse body weights were measured with a scale twice per week. […] T/C values were calculated using the following formula: % T/C=100×ΔT/ΔC if ΔT>0. […]
Tumor sizes and body weights were measured again on the last day of the study.

COc1ccc(-c2nc(N3CCOCC3)c3sc(CN(C)c4ncc(C(=O)NO)cn4)cc3n2)cn1 [Compound 1, N-hydroxy-2-(((2-(6-methoxypyridin-3-yl)-4-morpholinothieno[3,2-d]pyrimidin-6-yl)methyl)(methyl)amino)pyrimidine-5-carboxamide]
T/C value (MM1S subcutaneous tumor; day 14, p<0.0001): 27.37%
Body weight and side effects (MM1S subcutaneous tumor; single agent, 15 days): No body weight loss or other side effects were observed
Tumor growth (MM1S subcutaneous tumor; single agent, 15 days): inhibited tumor growth
Blood levels of T and B lymphocytes (T and B lymphocytes; blood): significant reversible reduction in the blood levels of both T and B lymphocytes
T and B lymphocyte levels in spleen and lymph nodes (T and B lymphocytes; spleen and lymph nodes): significant reduction in both T and B lymphocytes
Marrow lymphocyte progenitor cells [1]: induced a compensatory increase in marrow lymphocyte progenitor cells
Tumor growth [2]: significantly reduced tumor growth compared to the CAL-101 and control groups
